From ChEMBL document CHEMBL1135077, “Human glucagon receptor antagonists based on alkylidene hydrazides” (Bioorg Med Chem Lett, 2002)

Assays:
Glucagon receptor [1] = target: Glucagon receptor (Homo sapiens, UniProt P47871); experiment: In vitro inhibitory activity against human glucagon receptor using […]-labeled glucagon
Glucagon receptor [2] = target: Glucagon receptor (Rattus norvegicus, UniProt P30082); experiment: In vitro inhibitory activity against rat glucagon receptor using […]-labeled glucagon
[3] = Half life period in vivo; assay type: ADME, organism-based
Rattus norvegicus = species on record: Rattus norvegicus; experiment: In vitro metabolism in rat liver microsomes was evaluated to determine diminishing of glucuronidation rate; assay type: ADME

Chain of Glucagon receptor (Homo sapiens, UniProt P47871) (P47871 whole entry): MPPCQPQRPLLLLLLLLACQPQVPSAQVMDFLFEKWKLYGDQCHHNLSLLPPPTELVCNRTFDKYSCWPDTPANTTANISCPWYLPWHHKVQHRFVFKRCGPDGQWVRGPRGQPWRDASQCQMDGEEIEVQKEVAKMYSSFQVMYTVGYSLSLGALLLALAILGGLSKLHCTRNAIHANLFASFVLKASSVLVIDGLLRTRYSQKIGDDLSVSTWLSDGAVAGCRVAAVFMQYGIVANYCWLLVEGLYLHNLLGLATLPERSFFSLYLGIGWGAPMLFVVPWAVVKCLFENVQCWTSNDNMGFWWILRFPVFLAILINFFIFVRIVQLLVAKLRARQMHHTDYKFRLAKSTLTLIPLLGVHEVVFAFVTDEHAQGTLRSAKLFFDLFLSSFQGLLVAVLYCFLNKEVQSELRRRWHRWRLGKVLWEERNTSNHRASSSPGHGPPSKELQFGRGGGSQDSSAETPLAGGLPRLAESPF
Chain of Glucagon receptor (Rattus norvegicus, UniProt P30082) (P30082 whole entry): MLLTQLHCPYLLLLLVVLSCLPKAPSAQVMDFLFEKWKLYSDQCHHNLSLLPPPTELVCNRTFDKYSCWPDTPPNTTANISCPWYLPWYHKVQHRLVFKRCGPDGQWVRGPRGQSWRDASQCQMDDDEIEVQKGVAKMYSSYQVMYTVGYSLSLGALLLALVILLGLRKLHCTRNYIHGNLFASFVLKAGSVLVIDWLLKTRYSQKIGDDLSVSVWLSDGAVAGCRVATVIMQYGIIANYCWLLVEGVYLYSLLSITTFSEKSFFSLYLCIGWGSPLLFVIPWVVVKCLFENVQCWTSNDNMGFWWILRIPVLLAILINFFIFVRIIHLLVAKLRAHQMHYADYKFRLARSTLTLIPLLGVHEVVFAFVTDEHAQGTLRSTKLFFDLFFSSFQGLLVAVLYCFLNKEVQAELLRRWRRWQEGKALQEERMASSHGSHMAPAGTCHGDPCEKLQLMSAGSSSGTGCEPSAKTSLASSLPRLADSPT

| SMILES | IC50 (Glucagon receptor [1]) | other results |
| --- | --- | --- |
| COc1cc(/C=N/NC(=O)c2ccc(O)c(O)c2)cc(OC)c1OCc1ccc(C(C)C)cc1 | 2700 nM |  |
| COc1cc(CCNC(=N)c2ccc(O)c(Cl)c2)cc(OC)c1OCc1ccc(C(C)C)cc1 | 5200 nM |  |
| COc1cc(/C=N/NC(=O)c2ccc(O)c(C#N)c2)cc(OC)c1OCc1ccc(C(C)C)cc1 | 20 nM | IC50 (Glucagon receptor [2]): 1 nM; half-life [3]: 60 min; Rate (Rattus norvegicus): 27 pM min-1 (mg of protein)-1 |
| COc1cc(/C=N/NC(=O)c2ccc(O)cc2)cc(OC)c1OCc1ccc(C(C)C)cc1 | 690 nM |  |
| COc1cc(/C=N/NC(=O)c2ccc(O)c(Cl)c2Cl)cc(OC)c1OCc1ccc(C(C)C)cc1 | 31 nM |  |
| COc1ccc(/C=N/NC(=O)c2ccc(O)c(Cl)c2)c2ccccc12 | 870 nM |  |
| COc1cc(/C=N/NC(=O)c2ccc(O)c(F)c2F)cc(OC)c1OCc1ccc(C(C)C)cc1 | 48 nM |  |
| CC(C)c1ccc(Cn2ccc3c(/C=N/NC(=O)c4ccc(O)c(Cl)c4)cccc32)cc1 | 84 nM |  |
| COc1cc(/C=N/NC(=O)c2ccc(O)c(N)c2)cc(OC)c1OCc1ccc(C(C)C)cc1 | 940 nM |  |
| COC(=O)C(Oc1c(OC)cc(/C=N/NC(=O)c2ccc(O)c(Cl)c2)cc1OC)c1ccccc1 (configuration not stated) | 690 nM |  |
| COc1cc(/C=N/NC(=O)c2ccc(O)c(Cl)c2)cc(OC)c1OCc1ccc(C(C)C)cc1 | 23 nM | half-life [3]: 18 min; Rate (Rattus norvegicus): 169 pM min-1 (mg of protein)-1 |
| COc1cc(/C(C)=N/NC(=O)c2ccc(O)c(Cl)c2)cc(OC)c1OCc1ccc(C(C)C)cc1 | > 100000 nM |  |
| COc1cc(/C=N/NS(=O)(=O)c2ccc(O)c(Cl)c2)cc(OC)c1OCc1ccc(C(C)C)cc1 | 78300 nM |  |
| COc1cc(CNNC(=O)c2ccc(O)c(Cl)c2)cc(OC)c1OCc1ccc(C(C)C)cc1 | 880 nM |  |
| O=C(N/N=C/c1ccc(OCC2CCCCO2)c2ccccc12)c1ccc(O)c(Cl)c1 (configuration not stated) | 140 nM |  |
| CC(C)(C)c1nc(COc2ccc(/C=N/NC(=O)c3ccc(O)c(Cl)c3)c3ccccc23)no1 | 160 nM |  |

| SMILES | IC50 (Glucagon receptor [1]) | other results |
| --- | --- | --- |
| COc1cc(CCNC(=O)c2ccc(O)c(Cl)c2)cc(OC)c1OCc1ccc(C(C)C)cc1 | 1900 nM |  |
| COc1cc(/C=C/C(=O)Nc2ccc(O)c(Cl)c2)cc(OC)c1OCc1ccc(C(C)C)cc1 | 6400 nM |  |
| Cc1c(/C=N/NC(=O)c2ccc(O)c(Cl)c2)ccc(OCc2ccc(C(C)C)cc2)c1C | 740 nM |  |
| CC(C)c1ccc(Cn2cc(/C=N/NC(=O)c3ccc(O)c(Cl)c3)c3ccccc32)cc1 | 390 nM |  |
| COc1cc(/C=N/NC(=O)c2ccc(O)c(Cl)c2)cc(OC)c1OCc1ccc(OC(F)(F)F)cc1 | 180 nM |  |
| O=C(N/N=C/c1ccc(OCc2ccc(OC(F)(F)F)cc2)c2ccccc12)c1ccc(O)c(Cl)c1 | 58 nM |  |
| CC(C)c1ccc(COc2ccc(/C=N/NC(=O)c3ccc(O)c(Cl)c3)cc2)cc1 | 1500 nM |  |
| CC(C)c1ccc(COc2ccc(/C=N/NC(=O)c3ccc(O)c(Cl)c3)c3ccccc23)cc1 | 53 nM |  |
| COc1cc(/C=N/NC(=O)c2ccc(O)c(Cl)c2)cc(OC)c1OCc1ccc(F)c(F)c1 | 150 nM |  |
| COc1cc(/C=N/NC(=O)c2ccc(O)c(Cl)c2)cc(C(=O)O)c1OCc1ccc(C(C)C)cc1 | 30000 nM |  |
| COc1cc(/C=N/NC(=O)c2ccc(O)c(Cl)c2)ccc1OCc1ccc(C(C)C)cc1 | 1300 nM |  |
| COc1cc(/C=N/NC(=O)c2ccc(O)c([N+](=O)[O-])c2)cc(OC)c1OCc1ccc(C(C)C)cc1 | 50 nM |  |
| Cc1cc(/C=N/NC(=O)c2ccc(O)c(Cl)c2)cc(C)c1OCc1ccc(C(C)C)cc1 | 330 nM |  |
| NC(=O)COc1ccc(/C=N/NC(=O)c2ccc(O)c(Cl)c2)c2ccccc12 | 1200 nM |  |
| COc1cc(/C=N/NC(=O)c2ccc(O)c(F)c2)cc(OC)c1OCc1ccc(C(C)C)cc1 | 110 nM |  |
| CCN(CC)C(=O)COc1ccc(/C=N/NC(=O)c2ccc(O)c(Cl)c2)c2ccccc12 | 130 nM |  |
